According to patent US10100030B2 (Kissei Pharmaceutical Co., Ltd., priority 2013, dated 2018):

Legend:
[1] = Measurement of drug concentrations in the brain after foot-tapping test; assay type: in vivo; details: male; 0.3 mg/kg iv, after foot-tapping was finished, gerbil brain; read-out: Conc. (drug concentration in the brain)
Experimental: (§1) A male gerbil (Japan SLC) was anesthetized with isoflurane, and 0.3 mg/kg of a test compound was administered from the jugular vein. After four hours, GR73632 (5 pmol/5 μl), which is an NK1 receptor agonist, was administered into the cerebral ventricle at the part 1 mm lateral to and 4.5 mm below the bregma in the head, under anesthesia with isoflurane. After the administration, the gerbil was moved to an observation cage, and the foot-tapping period during five minutes after the recovery of the righting reflex was measured. The foot-tapping inhibition rate (%) of each test compound was calculated by the following equation. Foot-tapping inhibition rate (%)={1−(Foot-tapping period when test compound was administered)/(Foot-tapping period when solvent was administered)}×100 (2) Measurement of Drug Concentrations
After foot-tapping was finished, laparotomy was performed immediately under anesthesia with ether, and a blood sample was taken from the abdominal vena cava. At the same time, the brain was extracted. Through a quantitative analysis using liquid chromatography-mass spectrometry (LC/MS), the concentrations of the test compound in the plasma and the brain were measured.
(§2) In the table, Ex. No. means the Example number. Inhibition (%) is the foot-tapping inhibition rate, and Conc. (nM) is the drug concentration in the brain.

NK1 receptor = NK1 receptor (Meriones unguiculatus (Mongolian jird) (Gerbillus unguiculatus), UniProt Q5DUB1); test: Effect on GR73632-induced foot-tapping; assay type: in vivo; details: 0.3 mg/kg from the jugular vein, GR73632 after four hours, male gerbil
Sequence of NK1 receptor (Q5DUB1 whole entry): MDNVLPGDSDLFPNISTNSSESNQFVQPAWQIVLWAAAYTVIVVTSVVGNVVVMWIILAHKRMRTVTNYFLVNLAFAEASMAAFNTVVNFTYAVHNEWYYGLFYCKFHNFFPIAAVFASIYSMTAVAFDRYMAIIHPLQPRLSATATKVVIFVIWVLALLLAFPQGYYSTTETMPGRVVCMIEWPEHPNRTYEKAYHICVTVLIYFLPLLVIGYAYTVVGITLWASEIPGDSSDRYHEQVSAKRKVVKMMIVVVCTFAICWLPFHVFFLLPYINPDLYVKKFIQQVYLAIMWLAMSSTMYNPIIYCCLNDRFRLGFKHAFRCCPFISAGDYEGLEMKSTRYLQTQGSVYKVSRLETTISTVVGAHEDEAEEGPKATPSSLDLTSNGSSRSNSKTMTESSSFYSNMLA
Experimental: (1) Effect on Foot-tapping
as §1, §2

hERG channel = hERG channel (Homo sapiens (Human), UniProt Q12809); test: Evaluation of hERG current (whole-cell patch clamp); assay type: cell-based; details: 10 μM, application for 10 minutes, n = 3, average ± standard error
Sequence of hERG channel (Q12809 whole entry): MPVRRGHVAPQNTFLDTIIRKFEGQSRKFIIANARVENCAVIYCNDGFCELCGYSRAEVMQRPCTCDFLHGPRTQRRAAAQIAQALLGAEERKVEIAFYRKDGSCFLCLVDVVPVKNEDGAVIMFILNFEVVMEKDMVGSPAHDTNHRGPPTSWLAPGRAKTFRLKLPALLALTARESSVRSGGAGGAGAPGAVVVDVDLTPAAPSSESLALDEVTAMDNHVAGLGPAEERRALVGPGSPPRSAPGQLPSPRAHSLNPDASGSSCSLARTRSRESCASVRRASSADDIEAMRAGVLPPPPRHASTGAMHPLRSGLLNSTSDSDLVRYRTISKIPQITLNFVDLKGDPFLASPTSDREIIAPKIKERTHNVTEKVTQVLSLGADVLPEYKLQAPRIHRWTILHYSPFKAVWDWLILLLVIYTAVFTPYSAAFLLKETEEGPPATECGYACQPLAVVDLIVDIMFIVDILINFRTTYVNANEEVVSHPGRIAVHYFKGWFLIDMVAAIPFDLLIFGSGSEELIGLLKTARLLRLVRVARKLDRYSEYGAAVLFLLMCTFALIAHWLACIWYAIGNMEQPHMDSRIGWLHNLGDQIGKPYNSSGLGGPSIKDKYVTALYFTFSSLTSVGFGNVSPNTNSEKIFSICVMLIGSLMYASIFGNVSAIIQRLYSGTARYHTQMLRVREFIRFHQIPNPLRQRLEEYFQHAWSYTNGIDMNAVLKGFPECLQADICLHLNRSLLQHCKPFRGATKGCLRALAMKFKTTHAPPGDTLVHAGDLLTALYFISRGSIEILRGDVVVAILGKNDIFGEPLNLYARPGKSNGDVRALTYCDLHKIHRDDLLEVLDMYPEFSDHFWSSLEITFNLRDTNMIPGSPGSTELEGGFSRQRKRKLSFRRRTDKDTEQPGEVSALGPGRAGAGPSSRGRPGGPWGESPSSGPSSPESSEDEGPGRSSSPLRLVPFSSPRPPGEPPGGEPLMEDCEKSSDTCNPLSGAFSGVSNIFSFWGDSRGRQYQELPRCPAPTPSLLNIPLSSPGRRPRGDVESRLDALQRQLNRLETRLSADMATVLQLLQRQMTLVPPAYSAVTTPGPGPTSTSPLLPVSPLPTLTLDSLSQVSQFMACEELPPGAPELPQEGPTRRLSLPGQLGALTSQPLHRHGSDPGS
Experimental: Evaluation of hERG Current
The hERG current was measured by a whole-cell method using a patch clamp system, where a cover glass on which hERG channel-expressing human embryonic kidney (HEK) 293 cells were seeded was placed on a perfusion bath and a perfusion solution was caused to flow. The change in the hERG channel-derived current caused by a pulse protocol (holding potential of −80 mV, depolarization pulse of +20 mV for 1.9 seconds, repolarization pulse of −50 mV for 2 seconds, stimulated at intervals of 15 seconds) of data acquisition/analysis software, pCLAMP9 (Axon Instruments, Inc.), was measured. The measurement conditions were a flow rate of about 1.5 mL/min and a temperature of about 33° C. Two wave forms just before applying the test compound and two wave forms immediately after the application for 10 minutes were analyzed, and the statistical analysis was performed. The value before the application of the test compound was regarded as 100%, and the change rate based on the value was determined.
In the table. Ex. No. means the Example number, and the value is the average±the standard error.

human NK1 receptor = human NK1 receptor (Homo sapiens (Human), UniProt P25103); test: Affinity for human NK1 receptor (125I-substance P receptor binding test); details: membrane fraction of human NK1 receptor-expressing 293T cells; read-out: IC50 (concentration required for 50% inhibition of 125I-substance P binding)
Sequence of human NK1 receptor (P25103 whole entry): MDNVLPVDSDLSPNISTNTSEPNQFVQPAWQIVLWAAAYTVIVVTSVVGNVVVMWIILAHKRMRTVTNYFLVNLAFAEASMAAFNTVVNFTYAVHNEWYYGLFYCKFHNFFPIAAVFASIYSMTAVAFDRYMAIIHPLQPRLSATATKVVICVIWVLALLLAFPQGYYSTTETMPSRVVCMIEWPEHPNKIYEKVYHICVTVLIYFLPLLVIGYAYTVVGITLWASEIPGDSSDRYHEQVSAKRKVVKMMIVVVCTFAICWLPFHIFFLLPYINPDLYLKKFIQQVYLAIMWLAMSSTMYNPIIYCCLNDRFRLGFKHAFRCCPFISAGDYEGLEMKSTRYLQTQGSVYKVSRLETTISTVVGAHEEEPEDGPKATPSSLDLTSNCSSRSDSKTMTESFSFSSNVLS
Experimental: Affinity for Human NK1 Receptor
(3) Measurement of Binding Affinity to Human NK1 Receptor
(3-1) Preparation of Membrane Fraction from Human NK1 Receptor-expressing Cells
Human NK1 receptor-expressing cells were prepared in a 175 cm^2 culture flask (Nippon Becton Dickinson). The formation of a complex of the human NK1 receptor expression plasmid and Lipofectamine 2000 was performed by calculating the culture area ratio and increasing the scale of the method described in the above 2-4 by the ratio. The human NK1 receptor-expressing cells were collected in a buffer solution for the membrane fraction preparation (50 mM Tris (Wako Pure Chemical). 120 mM sodium chloride (Wako Pure Chemical Industries), 5 mM potassium chloride (Wako Pure Chemical Industries), 1 mM ethylenediaminetetraacetic acid (Sigma), 0.002 mg/mL chymostatin (Peptide Institute), 0.04 mg/ bacitracin (Wako Pure Chemical Industries), 0.005 mg/mL phosphoramidon (Peptide Institute) and 0.5 mM phenylmethylsulfonyl fluoride (Wako Pure Chemical Industries), pH7.4) and centrifuged at 1,880 g for 10 minutes, and the cell sediment was suspended in the buffer solution for the membrane fraction preparation. After freezing and thawing the cells once, the cells were homogenized using a Dounce-type homogenizer (cooled on ice, 1000 rpm, 20 times). The homogenized cell suspension was centrifuged at 20,000 rpm for 10 minutes, and the supernatant was removed to obtain cell sediment. The cell sediment was suspended again in the buffer solution for the membrane fraction preparation and homogenized using a Dounce-type homogenizer (cooled on ice, 1000 rpm, 30 times). The cell suspension was centrifuged at 20,000 rpm for 10 minutes, and the supernatant was removed to obtain cell sediment. The same homogenization and centrifugation were repeated again, and final cell sediment was obtained. The final cell sediment was suspended in a buffer solution for the receptor binding test (50 mM Tris (Wako Pure Chemical Industries), 3 mM manganese chloride (Wako Pure Chemical Industries), 0.002 mg/mL chymostatin (Peptide Institute), 0.04 mg/bacitracin (Wako Pure Chemical Industries) and 0.02% bovine serum albumin (Sigma), pH 7.4), and the protein concentration was measured using BCA Protein Assay Kit (Pierce).
(3-2) Receptor Binding Test
The buffer solution for the receptor binding test was dispensed to the wells of a 96-well assay plate (Greiner) at 22.5 μL/well. DMSO solutions of a test compound, which were prepared at an 80-time higher concentration using 100% dimethyl sulfoxide (DMSO), were added to the wells at 2.5 μL/well (final concentrations of 1 nM to 100 nM), and the solutions were mixed. As a radiolabeled ligand, ^125I-substance P (Substance P, [^125I]Tyr^8-, PerkinElmer) was used. ^125I-substance P was diluted with the buffer solution for the receptor binding test to a concentration resulting in […] and added to the 96-well assay plate, and the solutions were mixed. The membrane fraction prepared from the human NK1 receptor-expressing cells was diluted with the buffer solution for the receptor binding test to a concentration resulting in 8 to 10 μg/well, suspended until the suspension became in such a homogenous state that the suspension could flow through as 27G injection needle smoothly and then added to the 96-well assay plate at 150 μL/well. Then, the plate was incubated at room temperature for 60 minutes while shaking the plate. The reaction solutions were suction-filtered. through a multiscreen 96-well filter plate (Millipore) which had been pre-treated with 0.3% polyethyleneimine, and the reaction was terminated by washing with a washing solution (50 mM Tris and 0.02% bovine serum albumin, pH 7.4) four times. The bottom of the microplate was dried at 60° C., and then 100 μL/well of MicroScint 20 (PerkinElmer) was dispensed to the wells. The top of the plate was sealed with TopSeal A (PerkinElmer), and the plate was shaken for 5 to 10 minutes. […]

CYP3A4 = CYP3A4 (Homo sapiens (Human), UniProt P08684); test: Inhibitory effect on CYP3A4 (Luciferin-IPA); details: read-out: IC50 (CYP3A4 inhibition); 30-minute pre-incubation group
Sequence of CYP3A4 (P08684 whole entry): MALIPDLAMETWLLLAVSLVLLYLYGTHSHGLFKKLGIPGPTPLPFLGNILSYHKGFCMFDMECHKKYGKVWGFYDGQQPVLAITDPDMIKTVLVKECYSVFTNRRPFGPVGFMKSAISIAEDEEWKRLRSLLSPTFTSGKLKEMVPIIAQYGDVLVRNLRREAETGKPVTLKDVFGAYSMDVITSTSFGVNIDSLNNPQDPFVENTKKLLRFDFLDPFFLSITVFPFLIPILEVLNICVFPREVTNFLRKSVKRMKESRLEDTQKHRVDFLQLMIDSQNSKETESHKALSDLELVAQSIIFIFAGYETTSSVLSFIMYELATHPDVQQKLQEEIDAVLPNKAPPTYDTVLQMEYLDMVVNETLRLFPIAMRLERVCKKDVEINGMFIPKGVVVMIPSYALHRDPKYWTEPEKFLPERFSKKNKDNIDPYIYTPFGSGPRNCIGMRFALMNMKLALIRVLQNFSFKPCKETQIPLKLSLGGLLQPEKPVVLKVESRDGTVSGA
Experimental: Enzyme reaction was performed by incubating in a potassium phosphate buffer solution (pH 7.4) containing 1 nM to 20 μM test compound, 3.2 mM magnesium chloride, 0.2 pmol human CYP3A4 (BD Biosciences), 0.5 mM reduced nicotinamide adenine dinucleotide phosphate (NADPH) and 3 μM Luciferin-IPA (Promega) at 37° C. for 10 minutes. The volume of the reaction solution was 50 μL/well. The 30-minute pre-incubation group was incubated at 37° C. for 30 minutes before adding the substrate, the Luciferin-IPA solution (12.5 μL/well). At the end of the enzyme reaction, 50 μL/well of a Luciferin detection reagent (Promega) was added to the wells, and the plate was left at room temperature for 20 minutes. Then, the emission intensities were measured with Infinite M1000 (TECAN). The enzyme activities (%) relative to the value of the group to which the test compound was not added were calculated.

concentration at 4 h [1]: 275 nM
Inhibition (foot-tapping inhibition rate) (NK1 receptor): 100%
IC50 (human NK1 receptor): 0.00211 µM
IC50 (CYP3A4): 6.2 µM
Compound: Cc1cc(F)ccc1-c1cc(N2CCC(CC(=O)O)CC2)ncc1N(C)C(=O)C(C)(C)c1cc(C(F)(F)F)cc(C(F)(F)F)c1 [Example 1]
hERG current, % of value before application (hERG channel): 93.9 ± 2.7%
